From BindingDB's records for doi:10.1021/acs.jmedchem.8b00705 (Zhejiang University, 2018)

experiment: Inhibition of alpha-crystallin B R120G mutant (unknown origin)-induced intracellular protein aggregation expressed in human HeLa cells or HLE-B3 cells incubated for 6 to 8 hrs by fluorescence microscopy relative to untreated control

EC50 [nM]	SMILES
64	C[C@H](CCCC(C)(C)O)[C@H]1CC[C@@]2(C)C3=CC[C@H]4C(C)(C)[C@@H](O)CC[C@]4(C)C3=CC[C@]12C
26	C[C@H](CCCC(C)(C)O)[C@H]1CC[C@@]2(C)C3=C(CC[C@]12C)[C@@]1(C)C[C@@H](F)[C@@H](O)C(C)(C)[C@@H]1CC3
18	C[C@H](CCCC(C)(C)O)[C@H]1CC[C@@]2(C)C3=C(CC[C@]12C)[C@@]1(C)C[C@@H](F)[C@H](O)C(C)(C)[C@@H]1CC3
106	C[C@H](CCCC(C)(C)O)[C@H]1CC[C@@]2(C)C3=C(CC[C@]12C)[C@@]1(C)CCC(=O)C(C)(C)[C@@H]1CC3

SMILES	EC50 [nM]
C[C@H](CCCC(C)(C)O)[C@H]1CC[C@@]2(C)C3=C(CC[C@]12C)[C@@]1(C)CC[C@H](O)C(C)(C)[C@@H]1CC3	57
C[C@H](CCCC(C)(C)O)[C@H]1CC[C@H]2[C@@H]3CC=C4C[C@@H](O)CC[C@]4(C)[C@H]3CC[C@]12C [(1S,2R,5S,10S,11S,14R,15R)-14-[(2R)-6-hydroxy-6-methylheptan-2-yl]-2,15-dimethyltetracyclo[8.7.0.0^{2,7}.0^{11,15}]heptadec-7-en-5-ol]	320
CC(C)=CCC[C@@H](C)[C@H]1CC[C@@]2(C)C3=C(CC[C@]12C)[C@@]1(C)CC[C@H](O)C(C)(C)[C@@H]1CC3 [LANOSTEROL]	1420
